The results in this text go back to article PMC6385020 (Molecules, 2019).

Molecules are shown by their SMILES.

Test [1] concerns F-21-T (DNA, G4) GGGTTAGGGTTAGGGTTAGGG
The test can be described thus: FRET-melting. Conditions: 10 mM KCl, 90 mM LiCl; 10 mM lithium cacodylate pH 7.3; 1 µM compound, 0.2 µM DNA.

In test [2] the test system is F-CEB25-WT-T (DNA, G4) AGGGTGGGTGTAAGTGTGGGTGGGT
Put plainly: FRET-melting. The note with it: 1 mM KCl, 99 mM LiCl; 10 mM lithium cacodylate pH 7.3; 1 µM compound, 0.2 µM DNA.

For test [3], the system named is F-21CTA-T (DNA, G4) AGGGCTAGGGCTAGGGCTAGGG
Put plainly: FRET-melting. The note with it: 1 mM KCl, 99 mM LiCl; 10 mM lithium cacodylate pH 7.3; 1 µM compound, 0.2 µM DNA.

For test [4], the system named is F-myc-T (DNA, G4) TGAGGGTGGGTAGGGTGGGTAA
The test can be described thus: FRET-melting. Conditions: 1 mM KCl, 99 mM LiCl; 10 mM lithium cacodylate pH 7.3; 1 µM compound, 0.2 µM DNA.

Test [5] relates to CEB25-WT (DNA, G4) AAGGGTGGGTGTAAGTGTGGGTGGGT
The test can be described thus: G4-FID, thiazole orange displacement. Conditions: 100 mM KCl; 10 mM lithium cacodylate pH 7.3, 1% DMSO; thiazole orange displaced; 1 µM compound, 0.25 µM DNA.

Test [6] deals with 22AG (DNA, G4) AGGGTTAGGGTTAGGGTTAGGG
Put plainly: G4-FID, thiazole orange displacement. The note with it: 100 mM KCl; 10 mM lithium cacodylate pH 7.3, 1% DMSO; thiazole orange displaced; 1 µM compound, 0.25 µM DNA.

In test [7] the test system is ds26 (DNA, duplex) CAATCGGATCGAATTCGATCCGATTG
The test can be described thus: G4-FID, thiazole orange displacement. Conditions: 100 mM KCl; 10 mM lithium cacodylate pH 7.3, 1% DMSO; thiazole orange displaced; 1 µM compound, 0.25 µM DNA.

The test system of test [8] is c-myc (myc22) (DNA, G4) TGAGGGTGGGTAGGGTGGGTAA
Put plainly: G4-FID, thiazole orange displacement. Conditions: 100 mM KCl; 10 mM lithium cacodylate pH 7.3, 1% DMSO; thiazole orange displaced; 1 µM compound, 0.25 µM DNA.

In test [9] the test system is 21CTA (DNA, G4) AGGGCTAGGGCTAGGGCTAGGG
The test can be described thus: G4-FID, thiazole orange displacement. The note with it: 100 mM KCl; 10 mM lithium cacodylate pH 7.3, 1% DMSO; thiazole orange displaced; 1 µM compound, 0.25 µM DNA.

In test [10] the test system is c-myc* (DNA, G4) TGAGGGTGGGTAGGGTGGGTAA
The test can be described thus: denaturing gel electrophoresis, 3'-exonuclease digestion. Conditions: 100 mM KCl or KClO4; covalent; platination at T20/A21 and G2/A3; 18 h, 32 °C, 10 µM DNA.

With `[C-]#Cc1ccccc1.[Pt+2].c1ccc(-c2cccc(-c3ccccn3)n2)nc1`, the binding entry in [1], in test [2], in test [3] and in test [4] was “no” each time.

For the compound `[Cl-].[Pt+2].c1cc(-c2ccc3ccccc3n2)nc(-c2ccc3ccccc3n2)c1`, the “% TO displacement” value in [5] is more than 80%; in [6] it was more than 80%; in test [7], less than 20%; in [8], more than 80%; in [9] it was more than 80%.

By ΔTm is commonly meant the shift of the melting midpoint relative to a reference. Consider `[Cl-].[Pt+2].c1ccc(-c2cccc(-c3ccccn3)n2)nc1`, for which the ΔTm in test [1], in test [2], in [3] and in test [4] was less than 10 °C throughout. Also, in [10], the binding entry is “yes”.
